# In patent US20100215588A1, “THERAPEUTIC DELIVERY OF INHIBITORY NUCLEIC ACID MOLECULES TO THE RESPIRATORY SYSTEM” (priority 2007, published 2010):
# Legend:
# [1] = system: A549 lung tumors; assay: A549 lung tumor growth after inhaled Nrf2 siRNA alone or with carboplatin; type: in vivo, SCID-Beige mice; details: lung tumor weights; siRNA 100 μg/dose by nebulizer three times a week for 4 weeks; carboplatin 30 mg/kg i.p. twice/week
# Description: (§1) Tumor Xenografts: A549 cells (5×10^6) were injected into the hind leg of male athymic nude mice and the tumor was measured weekly. The tumor volumes were measured using the following formula: [length (mm)×width (mm)×width (mm)×0.52]. In the lung metastasis experiments, 2×10^6 A549-C8-luc cells were injected into SCID-Beige mice (Charles River, Mass.) intravenously.
# (§2) For in vivo experiments, all siRNA compounds were chemically synthesized being stabilized by alternating 2-O′-Me modifications on both strands. The sequence of siRNA targeting human Nrf2 used for in vivo experiments is 5′-UCCCGUUUGUAGAUGACAA-3′ (sense) and 5′-UUGUCAUCUACAAACGGGA-3′ (antisense). The sequence of control siRNA targeting GFP is 5′-[…]-3′ (sense) and 5′-[…]-3′ (antisense).
# For aerosol delivery of Nrf2 or GFP siRNA into lung tumors, 100 μg of siRNA duplex diluted in PBS was aerosolized using a nebulizer. Mice were given three dose of siRNA (100 μg/dose) every week, for 4 weeks, using a nebulizer. Intraperitoneal injections of carboplatin were given at a dose of 30 mg/kg body weight twice/week.
# (§3) In Vivo Imaging: Animals inoculated with A549-C8-luc cells, which express a luciferase reporter gene, were anesthetized and injected intraperitoneally with 250 ul of luminescent substrate (15 mg/ml stock) D-Luciferin Firefly (Xenogen Cat# XR-1001). The animals were then imaged and analyzed by using the Xenogen IVIS Optical Imaging Device in the Johns Hopkins Oncology Center.
# Statistical Analysis-Statistical comparisons were performed by Student's t-tests. A value of p<0.05 was considered statistically significant. Tumor weights and changes in tumor volume were summarized using descriptive statistics. Differences in tumor measures between treatment groups were examined using linear regression models with generalized estimating equations (GEE). The distributions of both tumor measurements were skewed, so log transformations were used.
# [2] = system: RTP801; assay: Short-term (7 day) cigarette smoking model, intralung delivery of RTP801 siRNA; type: in vivo, mouse (C57BL6)
# Description: CS-induced inflammation was induced by 7 day smoking in 2 groups of C57BL6 mice, 10 mice per group. Group 1: CS+delivery of control siRNA (REDD8) siRNA; Group 2: CS+RTP801 siRNA (REDD14). Control groups of mice were instilled with either type of siRNA but kept in room air conditions. The animals were evaluated as in the above experiment with the Knock-Out mice.
# Exposure was carried out (7 h/day, 7 days/week) by burning 2R4F reference cigarettes (2.45 mg nicotine per cigarette; purchased from the Tobacco Research Institute, University of Kentucky, Lexington, Ky., USA) using a smoking machine (Model TE-10, Teague Enterprises, Davis, Calif., USA). Each smoldering cigarette was puffed for 2 s, once every minute for a total of eight puffs, at a flow rate of 1.05 L/min, to provide a standard puff of 35 cm^3. The smoke machine was adjusted to produce a mixture of sidestream smoke (89%) and mainstream smoke (11%) by burning five cigarettes at one time. Chamber atmosphere was monitored for total suspended particulates and carbon monoxide, with concentrations of 90 mg/m3 and 350 ppm, respectively.
# Following exposure to CS or instillation of RTP801 expressing plasmid, the mice were anesthetized with sodium pentobarbital. […] The total number of cells in the lavage fluid was determined, and 2×10^4 cells were cytocentrifuged (Shandon Southern Products, Pittsburgh, Pa., USA) onto glass slides and stained with Wright-Giemsa stain. […]
# Immunohistochemical staining of active caspase-3 assay was performed using anti-active caspase-3 antibody and the active caspase-3-positive cells were counted with a macro, using Image Pro Plus program. […]
# The activity of caspase-3 activity was measured in lung tissue extracts using a fluorometric assay according to the manufacturer's instructions. […] After removal of nuclei and cellular debris, the supernatant (300 μg protein) was then incubated with the pro-fluorescent substrate at room temperature for 1 h and the fluorescence intensity was measured utilizing a Typhoon phosphoimager (Amersham Biosciences, Inc., Piscataway, N.J., USA). […]
# [3] = system: Nrf2; assay: ARE-Luc Nrf2-dependent reporter activity in orthotopic lung tumors, in vivo imaging; design: species or system SCID-Beige mice; details: siRNA by nebulizer; mice with A549-C8-luc lung tumors; FIG. 5
# Description: as §1, §2
# For aerosol delivery of Nrf2 or GFP siRNA into lung tumors, 100 μg of siRNA duplex diluted in PBS was aerosolized using a nebulizer. Mice were given three dose of siRNA (100 μg/dose) every week, for 4 weeks, using a nebulizer. […]
# as §3
# [4] = Qualitative distribution of REDD14Cy3.5 siRNA in lung and kidney (fluorescence analysis); type: in vivo, cynomolgus monkeys
# Description: On Day 15 of the study, two of the available animals (101 and 102) were administered a target dose of 35 mg/kg of a mixture of I5NP and REDD14Cy3.5 (fluorescence-labelled) siRNA via an oronasal mask as a nebulized aerosol generated by the Aeroneb device. A 2.0 L/min dilution airflow was used. The total dose of siRNA administered was calculated, based on the bodyweights and measured respiratory minute volumes of the animals, and on the achieved output of the Aeroneb device using the formulation concentration of 40 mg/mL of siRNA. The administered dose was adjusted by changing the exposure times for the animals
# At the time of necropsy following Treatment 2, the lungs, bronchi and trachea of animal 102 were removed from the animal. The lungs were perfused with 4% paraformaldehyde, introduced using a syringe, via the trachea and/or bronchus and stored in this fixative at ambient temperature for a period of approximately 21 hours. Following this, as much as possible of the original fixative fluid was withdrawn by syringe via the trachea/bronchus and replaced with 0.2% paraformaldehyde. The fixed lungs were analyzed for fluorescence distribution.
# At the time of necropsy following Treatment 2, the right kidney of animal 102 was removed from the animal. The kidney was dissected into quarters by making one longitudinal and one transverse cut, each to pass through the hilus, and then immersed in 4% paraformaldehyde and refrigerated for approximately 21 hours. Following this, the fixing solution was changed to 0.2% paraformaldehyde and the kidney was analyzed for fluorescence distribution.
# Following Treatment 2, lung and kidney samples from animal 102 were analyzed for distribution of fluorescence (from REDD14Cy3.5 siRNA). The results were considered to be qualitative.
# [5] = Treatment 2, animal 102, approximately 30 minutes post-end of dosing, qualitative
compound,measurement,setting,value
"GFP siRNA: control siRNA targeting GFP; sense 5′-GGCUACGUCCAGGAGCGCACC-3′, antisense 5′-GGUGCGCUCCUGGACGUAGCC-3′ (alternating 2'-O-methyl on both strands, starting position not given here)",Mean (SD) tumor weight,[1],710 (167.93) mg
"REDD14: exemplary siRNA in aqueous solution directed against gene RTP801; sense GUGCCAACCUGAUGCAGCU, antisense AGCUGCAUCAGGUUGGCAC (chemistry not fully specified)",RTP801 expression in the lungs,"[2]; 50 μg siRNA instilled intranasally, FIG. 3b",reduction of RTP801 expression in the lungs
same,"cigarette smoking induced apoptosis of lung septal cells (activated caspase staining, caspase 3 immunoblot)","[2]; 1 week of cigarette smoking, FIG. 3c",partially protected from cigarette smoking induced apoptosis of lung septal cells
same,cigarette smoking induced inflammation (number of inflammatory bronchoalveolar lavage cells),"[2]; 1 week of cigarette smoking, versus control siRNA REDD8, FIG. 3a",partially protected from cigarette smoking induced inflammation
"Nrf2 siRNA: siRNA targeting human Nrf2, alternating 2-O′-Me; sense 5′-UCCCGUUUGUAGAUGACAA-3′, antisense 5′-UUGUCAUCUACAAACGGGA-3′ (alternating 2'-O-methyl on both strands, starting position not given here)",Mean (SD) tumor weight,[1],802 (172.25) mg
same,Nrf2 reporter activity in vivo,[3],inhibited Nrf2 reporter activity in vivo
"N.N.O=C([O-])C1(C(=O)[O-])CCC1.[Pt+2] [Vehicle siRNA + carboplatin, carboplatin]",Mean (SD) tumor weight,[1],495 (49.5) mg
"REDD14Cy3.5: fluorescent-labelled (Cy3.5) REDD14, RTP801 inhibiting siRNA; sense GUGCCAACCUGAUGCAGCU, antisense AGCUGCAUCAGGUUGGCAC (Cy3.5 fluorescent label, position and strand not given here)",fluorescent label in lungs,[4]; [5],detected in all sections taken from all lobes of the lungs
same,fluorescent label in right kidney,[4]; [5],little label detected in the right kidney
same,"distribution in lung, I5NP (hybridization) and REDD14Cy3.5 (fluorescence) compared",[4]; after oronasal inhalation,little difference in the distribution of the two test articles in lung
